Results published in ChEMBL document CHEMBL1201862, “PubChem BioAssay data set” (2004).
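Compound exposure: 48 hours, 5 concentrations, 96-well plates. Here, GI50 denotes the concentration required for 50% inhibition of growth.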 Calls of active or inactive are those of the source. Cut-off read from the data, not from the text of the source: active = GI50 up to about 1.1 µM and inactive = higher.

Legend:
Assay in all cases: NCI anticancer screen, dose series, 48 h
SNB-19 = system: SNB-19
SNB-78 = system: SNB-78
M19-MEL = system: M19-MEL
LXFL 529 = system: LXFL 529
SF-539 = system: SF-539
786-0 = system: 786-0
HCC 2998 = system: HCC 2998
NCI-H522 = system: NCI-H522
RPMI-8226 = system: RPMI-8226
HL-60 = system: HL-60
DLD-1 = system: DLD-1
IGROV-1 = system: IGROV-1
PC-3 = system: PC-3
T47D = system: T47D
MDA-MB-435 = system: MDA-MB-435
Hs-578T = system: Hs-578T
BT-549 = system: BT-549
DMS-114 = system: DMS-114
DMS-273 = system: DMS-273

Compound	GI50 (SNB-19)	GI50 (SNB-78)	GI50 (M19-MEL)	GI50 (LXFL 529)	GI50 (SF-539)	GI50 (786-0)	GI50 (HCC 2998)	GI50 (NCI-H522)	GI50 (RPMI-8226)	GI50 (HL-60)	GI50 (DLD-1)	GI50 (IGROV-1)	GI50 (PC-3)	GI50 (T47D)	GI50 (MDA-MB-435)	GI50 (Hs-578T)	GI50 (BT-549)	GI50 (DMS-114)	GI50 (DMS-273)
C=C=C(Sc1ccccc1)C(C)(C)OC(C)=O	18.8 µM (inactive)	29.8 µM (inactive)	15.8 µM (inactive)	18.2 µM (inactive)	16.1 µM (inactive)	16.5 µM (inactive)	20.9 µM (inactive)	15.6 µM (inactive)	30.7 µM (inactive)	26.7 µM (inactive)	16.5 µM (inactive)	17.6 µM (inactive)							
O=C(CCc1ccc(O)cc1)NCCc1cccc(O)c1	> 50 µM (inactive)				> 50 µM (inactive)	> 50 µM (inactive)		20.2 µM (inactive)		> 50 µM (inactive)		> 50 µM (inactive)	> 50 µM (inactive)	> 50 µM (inactive)	> 50 µM (inactive)	> 50 µM (inactive)	> 50 µM (inactive)		
CC(=O)c1ccc(NC(=O)/C(CC(=O)/C=C/c2ccccc2)=N/NC(N)=S)cc1					> 100 µM (inactive)	> 100 µM (inactive)	> 100 µM (inactive)	33.3 µM (inactive)	69.3 µM (inactive)	80.7 µM (inactive)		53.1 µM (inactive)	> 100 µM (inactive)	32.6 µM (inactive)	> 100 µM (inactive)	> 100 µM (inactive)	> 100 µM (inactive)		
CC(C)=CCC/C(C)=C/CC/C(C)=C/C(O)c1ccccc1 (configuration not stated)	20.2 µM (inactive)	22.6 µM (inactive)	18.3 µM (inactive)	17.8 µM (inactive)				> 10 µM (inactive)	18.7 µM (inactive)	22.5 µM (inactive)	18.5 µM (inactive)	19.8 µM (inactive)						18.3 µM (inactive)	
O=C(O)C(CSC(c1ccccc1)(c1ccccc1)c1ccccc1)/N=C/c1cccs1 (configuration not stated)	2.42 µM (inactive)				1.27 µM (inactive)	1.17 µM (inactive)	2.06 µM (inactive)	1.16 µM (inactive)	2.45 µM (inactive)	2.54 µM (inactive)		1.95 µM (inactive)	1.89 µM (inactive)	3.37 µM (inactive)	0.324 µM (active)	3.2 µM (inactive)	4.97 µM (inactive)		
CC[n+]1c(-c2ccccc2)c2cc(N)ccc2c2ccc(N)cc21 [HOMIDIUM BROMIDE]					1.53 µM (inactive)		4.79 µM (inactive)			5.97 µM (inactive)			5.06 µM (inactive)	1.93 µM (inactive)	3.5 µM (inactive)	< 0.01 µM (active)	1.14 µM (inactive)		
CCc1ccc2nc(-c3ccc(O)cc3)sc2c1	14.7 µM (inactive)				11.7 µM (inactive)			3.86 µM (inactive)	13.9 µM (inactive)	2.96 µM (inactive)		14 µM (inactive)	12.6 µM (inactive)		19.2 µM (inactive)		16.3 µM (inactive)		
CN(N=O)c1nc2c(C(N)=O)ncn2s1	> 100 µM (inactive)				80.7 µM (inactive)	85.1 µM (inactive)	45.6 µM (inactive)	76.4 µM (inactive)	45 µM (inactive)			63.1 µM (inactive)	91.2 µM (inactive)	> 100 µM (inactive)	53.2 µM (inactive)	> 100 µM (inactive)	> 100 µM (inactive)		
COc1ccc(C[C@H]2COC(=O)[C@@H]2Cc2cccc(Br)c2)cc1OC	52 µM (inactive)				19.5 µM (inactive)	28.1 µM (inactive)	24.5 µM (inactive)	19.5 µM (inactive)	17.8 µM (inactive)	12.2 µM (inactive)		31.6 µM (inactive)	15.8 µM (inactive)	27.7 µM (inactive)	26.6 µM (inactive)	32.3 µM (inactive)	13.9 µM (inactive)		
Cc1cc(C)c2c(O)cc(-c3cccc4ccccc34)nc2n1	1.12 µM (inactive)				0.703 µM (active)	0.612 µM (active)	1.14 µM (inactive)	0.373 µM (active)	0.671 µM (active)	0.26 µM (active)		1.49 µM (inactive)	0.641 µM (active)	24.4 µM (inactive)	0.172 µM (active)	1.09 µM (active)	3.3 µM (inactive)		
C1CCCCc2nc3c(nc2CCC1)c1nc2c(nc1c1nc4c(nc31)CCCCCCCC4)CCCCCCCC2	> 100 µM (inactive)	> 100 µM (inactive)		> 100 µM (inactive)	> 100 µM (inactive)	> 100 µM (inactive)	> 100 µM (inactive)			> 100 µM (inactive)	> 100 µM (inactive)	> 100 µM (inactive)							
O=C(C1=C(C(=O)c2ccccc2)SC2(S1)C(C(=O)c1ccccc1)=C(C(=O)c1ccccc1)Sc1c2ssc1=O)c1ccccc1	24.6 µM (inactive)				24.4 µM (inactive)	31.1 µM (inactive)	55.8 µM (inactive)	26.7 µM (inactive)		11.2 µM (inactive)		> 100 µM (inactive)	> 100 µM (inactive)	97.7 µM (inactive)	70.6 µM (inactive)	> 100 µM (inactive)	80.4 µM (inactive)		
Nc1ccc(S(=O)(=O)c2ccc(NCN3C(=O)NC(=O)C(=O)C3=O)cc2)cc1 [ALLANTODAPSONE]	> 100 µM (inactive)					> 100 µM (inactive)	> 100 µM (inactive)	> 100 µM (inactive)				> 100 µM (inactive)	> 100 µM (inactive)	> 100 µM (inactive)	> 100 µM (inactive)	> 100 µM (inactive)	> 100 µM (inactive)		
O=C(O)/C(O)=C1/C=C(c2ccccc2)c2ccccc21	29.2 µM (inactive)	31.4 µM (inactive)	22.2 µM (inactive)	27.5 µM (inactive)	29.9 µM (inactive)	28.4 µM (inactive)	21.5 µM (inactive)	16.9 µM (inactive)	19.4 µM (inactive)	19.9 µM (inactive)	30.1 µM (inactive)	22.1 µM (inactive)						18.7 µM (inactive)	18.6 µM (inactive)
CCOC(=O)c1c(Cl)nc2ccccc2c1N=[N+]=[N-]	> 100 µM (inactive)				18.6 µM (inactive)		80.4 µM (inactive)	16.7 µM (inactive)	43.5 µM (inactive)	67 µM (inactive)		22 µM (inactive)	32.2 µM (inactive)	22.7 µM (inactive)	21.1 µM (inactive)	24.9 µM (inactive)	16.4 µM (inactive)		
O=C(Nc1nccs1)c1c(O)nc2sccn2c1=O	> 10 µM (inactive)				> 10 µM (inactive)		> 10 µM (inactive)	> 10 µM (inactive)	> 10 µM (inactive)	> 10 µM (inactive)		> 10 µM (inactive)	> 10 µM (inactive)	> 10 µM (inactive)	> 10 µM (inactive)	> 10 µM (inactive)			
O=C1CC(=O)NC(NN2C(=O)/C(=C/c3ccc(Cl)c(Cl)c3)N=C2c2ccccc2)=N1					20.8 µM (inactive)	26.9 µM (inactive)	19.7 µM (inactive)	30.8 µM (inactive)	13.6 µM (inactive)			31.1 µM (inactive)	23.1 µM (inactive)	47.1 µM (inactive)	27 µM (inactive)	18.4 µM (inactive)	20.7 µM (inactive)		
